Data reported in patent US20250263376A1, “(E)-N-CINNAMOYLAMINOALKANOLS WITH MELANOGENESIS INHIBITORY ACTIVITY” (Uniwersytet Jagiellonski, priority 2024, published 2025).

Columns and labels:
[1] = test system: Balb/c 3T3 murine fibroblast cell line; experiment: Phototoxicity, neutral red uptake in Balb/c 3T3 fibroblasts; details: for PIF (photoirritation factor): ratio of IC50 of unirradiated to irradiated cells; for cytotoxicity towards mouse fibroblasts: with and without UVA exposure
Procedure: d) Phototoxicity Assessment Using the Balb/c 3T3 Murine Fibroblast Cell Line
Balb/c 3T3 cells, which are an immortalized murine fibroblast cell line, were purchased at ATTC and cultured in the medium recommended by the manufacturer (DMEM GlutaMAX, newborn calf serum (BCS), antibiotics). After multiplication, cells were placed in 96-well plates, which were incubated for 24 hours, after which all wells of the plates were washed with 150 μL of balanced salt solution (HBSS). Then, after drying the plates, 100 μL of a solution of the tested compounds in HBSS with 2% FBS was added to each well and incubated for an hour. After this time, some of the plates were irradiated using the Suntest CPS+sunlight simulator from Atlas with appropriate filters cutting off radiation with a wavelength <320 nm (UVA radiation intensity 5 J/cm^2). The second part of the plates was placed in radiation-free conditions for the same period of time. After the exposure time, the liquid was removed from all plates and the wells were washed twice with 150 μL of HBSS, then supplemented with fresh culture medium and incubated for 24 hours in an incubator (37° C., 5% CO2). Viability was assessed in the neutral red uptake test, which is based on the ability of the dye to penetrate only into living cells. Dye uptake was confirmed by absorbance measurement at 540 nm. […] The appropriate coefficients were also calculated: mean phototoxic effect (MPE) and photoirritation factor (PIF). PIF is the ratio of the IC50 values of unirradiated to irradiated cells, while MPE is based on the comparison of concentration-response curves.

[2] = target: T1, tyrosinase released from B16-F10 cells (Mus musculus, UniProt P11344); experiment: Inhibition of tyrosinase activity released from B16-F10 cells; format: cell-based, murine; details: 24 h incubation, α-MSH, L-DOPA 0.5 mM
T1 construct: endogenous in cells; host or cells: B16-F10 murine melanoma cells (alpha-MSH stimulated), Triton X-100 lysate
T1 sequence (P11344 19-533): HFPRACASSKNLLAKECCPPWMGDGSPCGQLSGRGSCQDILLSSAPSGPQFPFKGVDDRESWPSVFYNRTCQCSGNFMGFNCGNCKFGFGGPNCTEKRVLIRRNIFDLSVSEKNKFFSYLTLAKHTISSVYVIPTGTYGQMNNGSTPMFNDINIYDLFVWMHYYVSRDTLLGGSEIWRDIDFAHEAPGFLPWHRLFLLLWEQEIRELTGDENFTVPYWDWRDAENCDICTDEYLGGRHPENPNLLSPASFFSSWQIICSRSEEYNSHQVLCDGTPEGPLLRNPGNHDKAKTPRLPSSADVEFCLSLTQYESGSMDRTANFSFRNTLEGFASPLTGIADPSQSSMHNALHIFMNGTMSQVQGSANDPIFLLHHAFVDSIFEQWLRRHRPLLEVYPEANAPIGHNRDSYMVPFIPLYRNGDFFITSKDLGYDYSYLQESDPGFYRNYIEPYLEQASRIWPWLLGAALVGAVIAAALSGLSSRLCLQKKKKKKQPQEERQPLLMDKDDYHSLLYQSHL
Procedure: Inhibition of Tyrosinase Activity Released from B16-F10 Cells
50,000 cells were placed in each well of a 24-well plate (in F10-Ham medium, 1% FBS). After 24 h of culture, the tested compounds were added in fresh medium (DMEM, 1% FBS), with an additional 5 μM of a-melanocorticotropic hormone (a-MSH) in the medium to induce melanogenesis. Three wells on the plate constituted a control sample without the melanogenesis inducer (a-MSH) and without the tested compounds. After 24 hours of incubation under these conditions, the medium was removed and the cells were washed twice with PBS. 100 μL of lysis buffer composed of 90 μL of 50 mM potassium phosphate buffer, 5 μL of 0.1 mM phenylmethylsulfonyl fluoride and 5 μL of 1% Triton X-100 were added to the wells. The plates were placed at −80° C. for 30 minutes. Cell lysates were then centrifuged for 30 min (4° C., 12,000 rpm), and then 80 μL of the supernatant was transferred to 96-well plates. […] After a 30-minute incubation, the absorbance was measured at 475 nm using a microplate reader. The percentage of inhibition of tyrosinase activity was calculated using the formula: [(AC−AT)/Ac]×100, where AC—is the absorbance of the negative control (from wells in which cells were cultured without the tested compounds), AT—is the absorbance of the sample from wells in which cells were cultured in the presence of the test compound.

[3] = test system: human reconstructed epidermis Episkin; experiment: Skin permeation studies in reconstructed human epidermis Episkin; format: in vitro ADME
Procedure: The tested substance A-111 in a macrogol formulation (2% A-111 in the PEG400+PEG800 base) was applied onto the epidermis in an amount of approximately 10 mg/cm^2 (“finite dose application”) using a sterile inoculation loop. The amount applied was weighed accurately. As a control, a macrogol formulation without the test substance was applied onto the epidermis. The finished experimental plate was incubated at 32° C. At specific time intervals, aliquots of the receptor fluid (0.5 mL) were collected for the analysis and replaced with 0.5 mL of fresh receptor fluid. After 24 h of culture, all of the receptor fluid was collected. The examined tissue was washed with cotton buds soaked in methanol. The donor and receptor compartments were washed with methanol, and the epidermis was separated from the inserts and transferred to methanol. Samples were stored at −20° C. until analysis. The content (concentration) of the tested substance A-111 in the receptor fluid and in individual compartments: on the surface of the epidermis, in the epidermis, in the receptor fluid was determined using measurements in a microplate reader at 281 nm on 96-well plates transmitting ultraviolet radiation.
In order to confirm proper bioavailability, studies of the permeation of compound A-111 from a solution in PEG400 were performed in a model of reconstructed human epidermis. […] The tested substance A-111 was applied onto the epidermis in the form of a 2% PEG400 solution in an amount of 15 μL. The finished experimental plate was incubated at 32° C. At specific time intervals, aliquots of the receptor fluid (0.5 mL) were collected for the analysis and replaced with fresh fluid. After 24 h of culture, all of the receptor fluid was collected. The examined tissue was washed with cotton buds soaked in methanol. The donor and receptor compartments were washed with methanol, and the epidermis was separated from the inserts and transferred to methanol. The content (concentration) of the tested substance A-111 in the acceptor fluid and in individual compartments: on the surface of the epidermis, in the epidermis, in the receptor fluid was determined using measurements in a microplate reader at 281 nm on 96-well plates transmitting ultraviolet radiation.
Permeation studies of the A-111 compound from a cosmetic formulation were performed in a model of reconstructed human epidermis. […] 25 μL of the formulation containing the tested compound A-111 was applied to the epidermis. […] The content (concentration) of the tested substance A-111 in the receptor fluid and in individual compartments: on the surface of the epidermis, in the epidermis, in the receptor fluid was determined using measurements in a microplate reader at 281 nm on 96-well plates transmitting ultraviolet radiation.

| SMILES | phototoxic potential [1] | PIF (photoirritation factor) [1] | cytotoxicity towards mouse fibroblasts [1] | inhibition of tyrosinase released from B16-F10 cells [2] | epidermal permeation ([3]; 2% A-111 in macrogol formulation (PEG400+PEG800), about 10 mg/cm^2, 24 h) | accumulation in the epidermis ([3]; 2% A-111 in macrogol formulation, 24 h) | epidermal permeation ([3]; 2% PEG400 solution, 15 μL, 24 h) | epidermal permeation ([3]; released from cosmetic formulation, 25 μL, 24 h) |
| --- | --- | --- | --- | --- | --- | --- | --- | --- |
| O=C(/C=C/c1ccccc1)NCCCCCO [Compound A-133, (2E)-N-(5-hydroxypentyl)-3-phenylprop-2-enamide] | do not have phototoxic potential | No phototoxicity | devoid of cytotoxicity |  |  |  |  |  |
| O=C(/C=C/c1ccc(Cl)cc1)NCCCCCO [Compound A-111, (2E)-3-(4-chlorophenyl)-N-(5-hydroxypentyl)prop-2-enamide] | do not have phototoxic potential | No phototoxicity | devoid of cytotoxicity | inhibit the activity of tyrosinase released from B16-F10 cells | crosses the epidermal barrier | no accumulation | crosses the epidermal barrier | crosses the epidermal barrier |
